Numbered stars: 1 amine (or outer) side, 2 acyl side, 3 side chain; on linkers, the order of the positions; unused ones are H or OH. Square brackets hold non-standard residues; d marks the D form. Peptide text beside a SMILES is read from it. * marks the point of attachment. Dolaproine = CO[C@@H]([C@@H]1CCCN1)[C@@H](C)C(=O)O; Hexanoyl(6-maleimido) = O=C1C=CC(=O)N1CCCCCC(=O)*; Dil = CC[C@H](C)[C@H](NC)[C@@H](CC(=O)O)OC; PABC = O=C(OCc1ccc(N[*:1])cc1)[*:2]; X1 = C[C@@H](N*)[C@@H](O)c1ccccc1; Cit = NC(=O)NCCC[C@H](N)C(=O)O; NMeV = CN[C@H](C(=O)O)C(C)C
Key:
Karpas 299 cells = test: Cell viability assay (Alamar Blue); assay type: cell-based, human; settings: 72 hours incubation, read-out: IC50 (drug concentration where half of the cells are killed)
Method: Cell culture. Karpas 299 cells (ATCC) were maintained in RPMI-1640 at 37° C. in a 5% CO2 humidified atmosphere. The medium was supplemented with 20% (v/v) heat-inactivated fetal bovine serum (FBS), and 1% (v/v) penicillin-streptomycin. All reagents were obtained from Gibco.
Cell viability assay. Cells at a concentration of 10,000 cells/mL were seeded in a sterile, tissue culture-treated, 96-well clear bottom plate for 24 hours at 37° C. in a 5% CO2 humidified atmosphere. Cells were then incubated with fresh media with 0.02 nM to 200 nM VcMMAE for 72 hours. At 92 hours, Alamar Blue (ThermoFisher) was added, and cell viability was measured at 96 hours according to the manufacturer's instructions using a fluorescence plate reader with […].
To evaluate the efficacy of TMV-vcMMAE, cell viability assays were performed using Alamar Blue assay Alamar Blue reagent is primarily made of resazurin, a nontoxic cell permeable non-fluorescent blue molecule. […]
Karpas 299 cells were seeded for 24 hours and then incubated with free vcMMAE or TMV-MMAE for 72 hours. At 92 hours, Alamar Blue was added and the cells fluorescence was measured after 4 hours of incubation at 540 nm excitation and 610 nm emission. The results for both free vcMMAE and TMV-MMAE are plotted in FIG. 4, and the IC50 values were calculated. […]

[1] = vary with assay set up, time course and cell lines used; read-out: IC50 values in the literature; cited from earlier work

For CC[C@H](C)[C@@H]([C@@H](CC(=O)N1CCC[C@H]1[C@H](OC)[C@@H](C)C(=O)N[C@H](C)[C@@H](O)c1ccccc1)OC)N(C)C(=O)[C@@H](NC(=O)[C@H](C(C)C)N(C)C(=O)OCc1ccc(NC(=O)[C@H](CCCNC(N)=O)NC(=O)[C@@H](NC(=O)CCCCCN2C(=O)C=CC2=O)C(C)C)cc1)C(C)C [vcMMAE, valine-citrulline monomethyl auristatin E] ({Hexanoyl(6-maleimido)}-V[Cit][PABC][NMeV]V[Dil][Dolaproine]-X1), the IC50 (Karpas 299 cells) is given as about 25.8 nM and the IC50 [1] is given as about 5 nM.

From patent US11253610B2, “Plant virus particles for delivery of antimitotic agents” (CASE WESTERN RESERVE UNIVERSITY, priority 2015, dated 2022)
